According to patent publication US5342980A, “Fungicidal agents” (American Cyanamid Company, priority 1992, dated 1994):

What was measured:
[1] = test system: Pseudocercosporella herpotrichoides; experiment: In vitro fungicidal evaluation, growth inhibition (PSDCHE); type: cell-based; parameters: scale not given here; details: 25 ppm, 3-4 days at 21° C.
Method: (§1) Test compounds are dissolved in acetone and dispersed into cell well plates containing a suspension of ground fungal mycelia in a nutrient broth. Assay plates are incubated for 3-4 days at 21° C. Growth inhibition is measured visually and is rated using the following scale:
(§2) Untreated controls, solvent blanks and reference standards are included in each test.
(§3) Assay fungi include the plant pathogens, Pythium ultimum (Pythul); Rhizoctonia solani (Rhizso); Fusarium oxysporum f. sp. cucumerinum (Fusoxc); and Pseudocercosporella herpotrichoides (Psdche).
(§4) When more than one test is run, the data are averaged.

[2] = test system: Pythium ultimum; experiment: In vitro fungicidal evaluation, growth inhibition (PYTHUL); type: cell-based; parameters: scale not given here; details: 25 ppm, 3-4 days at 21° C.
Method: as §1, §2, §3, §4

[3] = test system: Rhizoctonia solani; experiment: In vitro fungicidal evaluation, growth inhibition (RHIZSO); type: cell-based; parameters: scale not given here; details: 25 ppm, 3-4 days at 21° C.
Method: as §1, §2, §3, §4

[4] = test system: Fusarium oxysporum f. sp. cucumerinum; experiment: In vitro fungicidal evaluation, growth inhibition (FUSOXC); type: cell-based; parameters: scale not given here; details: 25 ppm, 3-4 days at 21° C.
Method: as §1, §2, §3, §4

[5] = test system: Pyricularia oryzae; type: in vivo; details: 200 ppm, plants sprayed before inoculation
[6] = test system: Alternaria solani; experiment: In vivo fungicidal evaluation, Tomato Early Blight (TEB); details: 200 ppm, plants sprayed before inoculation
[7] = test system: Erysiphe graminis f. sp. tritici; experiment: In vivo fungicidal evaluation, Wheat Powdery Mildew (WPM); details: 200 ppm, plants sprayed before inoculation
[8] = test system: Cercospora beticola; experiment: In vivo fungicidal evaluation, Sugar Beet Cercospora (SBC); details: plants sprayed before inoculation
[9] = test system: Venturia inaequalis; experiment: In vivo fungicidal evaluation, Apple Scab (AS); details: 200 ppm, plants sprayed before inoculation
[10] = test system: Botrytis cinerea; experiment: In vivo fungicidal evaluation, Pepper Botrytis (PB); details: 200 ppm, plants sprayed before inoculation
[11] = test system: Plasmopara viticola; experiment: In vivo fungicidal evaluation, Grape Downy Mildew (GDM); details: 200 ppm, plants sprayed before inoculation

SMILES | growth inhibition rating, PSDCHE [1] | growth inhibition rating, PYTHUL [2] | growth inhibition rating, RHIZSO [3] | growth inhibition rating, FUSOXC [4] | disease control rating, RB [5] | disease control rating, TEB [6] | disease control rating, WPM [7] | disease control rating, SBC ([8]; 200 ppm) | disease control rating, AS [9] | disease control rating, PB [10] | disease control rating, GDM [11] | disease control rating, SBC ([8]; 400 ppm)
CC(C)(C)C(=O)C(=S)N(Cc1ccccc1)OC(=O)Nc1ccccc1 [Carbanilate ester of N-benzyl-3,3-dimethyl-2-oxo-1-thiobutyrohydroxamate] | 0.0 | 6.0 | 2.5 | 0.5 |  |  |  |  |  |  |  | 
CN(O)C(=S)C(=O)C1(C)CC1 [N,1-dimethyl-alpha-thio-cyclopropaneglyoxylohydroxamic acid] | 0.0 | 7.0 | 0.0 | 0.5 |  |  |  |  |  |  |  | 
CC(C)(C)C(=O)C(=S)N([O-])Cc1ccccc1.CC(C)(C)C(=O)C(=S)N([O-])Cc1ccccc1.[Cu+2] [N-benzyl-3,3-dimethyl-2-oxo-1-thiobutyrohydroxamic acid copper(+2) chelate] | 0.0 | 1.5 | 1.5 | 0.0 |  |  |  |  |  |  |  | 
CC(C)(C)C(=O)C(=S)N([O-])Cc1ccccc1.CC(C)(C)C(=O)C(=S)N([O-])Cc1ccccc1.[Zn+2] [N-benzyl-3,3-dimethyl-2-oxo-1-thiobutyrohydroxamic acid zinc(+2) chelate] | 0.0 | 4.0 | 0.0 | 0.0 | 0.0 | 0.0 | 0.0 | 6.0 | 0.0 | 0.0 | 0.0 | 
CC(C)(C)C(=O)C(=S)N(O)Cc1ccccc1 [N-benzyl-3,3-dimethyl-2-oxo-1-thiobutyrohydroxamic acid] | 7.0 | 7.0 | 4.5 | 3.5 |  |  |  |  |  |  |  | 
CC(C)(C)C(=O)C(=S)N([O-])C1CCCC1.CC(C)(C)C(=O)C(=S)N([O-])C1CCCC1.[Cu+2] [N-cyclopentyl-3,3-dimethyl-2-oxo-1-thiobutyrohydroxamic acid copper(+2) chelate] | 0.0 | 0.0 | 0.0 | 0.0 | 0.0 | 0.0 | 0.0 | 0.5 | 0.0 | 0.0 | 0.0 | 2.0
CC(C)(C)C(=O)C(=S)N(O)C1CCCC1.CC(C)(C)C(=O)C(=S)N(O)C1CCCC1.[Zn+2] [N-cyclopentyl-3,3-dimethyl-2-oxo-1-thiobutyrohydroxamic acid zinc(+2) chelate] | 3.0 | 7.0 | 3.3 | 3.7 | 0.0 | 0.0 | 0.0 | 2.3 | 0.0 | 0.0 | 0.0 | 1.0
CC(C)(C)C(=O)C(=S)N(O)C1CCCC1 [N-cyclopentyl-3,3-dimethyl-2-oxo-1-thiobutyrohydroxamic acid] | 1.5 | 3.0 | 1.5 | 1.5 | 0.0 | 0.0 | 0.0 | 0.3 | 0.0 | 0.0 | 0.0 | 
CC(C)(C)C(=O)C(=S)N([O-])C1CCCC1.CC(C)(C)C(=O)C(=S)N([O-])C1CCCC1.CC(C)(C)C(=O)C(=S)N([O-])C1CCCC1.[Fe+3] [N-cyclopentyl-3,3-dimethyl-2-oxo-1-thiobutyrohydroxamicacid iron(+3) chelate] | 0.0 | 0.0 | 0.0 | 0.0 | 0.0 | 0.0 | 0.0 | 0.8 | 0.0 | 0.0 | 0.0 | 1.8
CC(C)N([O-])C(=S)C(=O)C(C)(C)C.CC(C)N([O-])C(=S)C(=O)C(C)(C)C.[Zn+2] [N-isopropyl-3,3-dimethyl-2-oxo-1-thiobutyrohydroxamic acid zinc (+2) chelate] | 0.0 | 6.3 | 1.0 | 2.7 | 0.0 | 0.0 | 0.0 | 0.0 | 0.0 | 2.0 | 3.0 | 
CN([O-])C(=S)C(=O)C12CC3CC(CC(C3)C1)C2.CN([O-])C(=S)C(=O)C12CC3CC(CC(C3)C1)C2.[Cu+2] [N-methyl-alpha-thio-1-adamantaneglyoxylohydroxamic acid copper(+2) chelate] | 0.0 | 0.0 | 0.0 | 0.0 | 0.0 | 0.0 | 0.0 | 0.5 | 0.0 | 0.0 | 0.0 | 1.8
CN(O)C(=S)C(=O)C12CC3CC(CC(C3)C1)C2 [N-methyl-α-thio-1-adamantaneglyoxylohydroxamic acid] | 3.3 | 7.0 | 1.0 | 1.7 | 0.0 | 0.0 | 0.0 | 1.8 | 0.0 | 0.0 | 0.0 | 3.0
CC(=O)ON(C)C(=S)C(=O)C(C)(C)C [acetate ester of N,3,3-trimethyl-2oxo-1-thiobutyrohydroxamate] | 0.0 | 9.0 | 0.0 | 0.0 | 0.0 | 5.0 | 0.0 | 0.0 | 0.0 | 0.0 | 0.0 | 
